Test results as given in ChEMBL document CHEMBL1154825, “Schweinfurthins I and J from Macaranga schweinfurthii” (2010).

Legend:
Assay type in all cases: functional
MOLT-4 = assay: Growth inhibition of human MOLT4 cells
COLO 205 = assay: Growth inhibition of human COLO205 cells
U-251 = assay: Growth inhibition of human U251 cells
SK-MEL-5 = assay: Growth inhibition of human SK-MEL-5 cells
SK-MEL-28 = assay: Growth inhibition of human SK-MEL-28 cells
HCT-116 = assay: Growth inhibition of human HCT116 cells
SNB-19 = assay: Growth inhibition of human SNB19 cells
A549 = assay: Growth inhibition of human A549 cells
RXF 393 = assay: Growth inhibition of human […] cells
[1] = Growth inhibition of human NCI60 cells
SR = assay: Growth inhibition of human SR cells
UACC-62 = assay: Growth inhibition of human UACC62 cells
MDA-MB-231 = assay: Growth inhibition of human MDA-MB-231 cells
HCC 2998 = assay: Growth inhibition of human HCC2998 cells
MDA-MB-468 = assay: Growth inhibition of human MDA-MB-468 cells
OVCAR-3 = assay: Growth inhibition of human OVCAR-3 cells
SF-295 = assay: Growth inhibition of human SF295 cells
M14 = assay: Growth inhibition of human M14 cells
OVCAR-5 = assay: Growth inhibition of human OVCAR5 cells
OVCAR-8 = assay: Growth inhibition of human OVCAR8 cells
SK-MEL-2 = assay: Growth inhibition of human SK-MEL-2 cells
HCT-15 = assay: Growth inhibition of human HCT15 cells
NCI-H322M = assay: Growth inhibition of human NCI-H322M cells
CCRF-CEM = assay: Growth inhibition of human CCRF-CEM cells
786-0 = assay: Growth inhibition of human 786-0 cells
NCI-H23 = assay: Growth inhibition of human NCI-H23 cells
OVCAR-4 = assay: Growth inhibition of human OVCAR4 cells
UO-31 = assay: Growth inhibition of human UO31 cells
K562 = assay: Growth inhibition of human K562 cells
MCF7 = assay: Growth inhibition of human MCF7 cells
NCI-H226 = assay: Growth inhibition of human NCI-H226 cells
BT-549 = assay: Growth inhibition of human BT549 cells
SK-OV-3 = assay: Growth inhibition of human SKOV3 cells
Malme-3M = assay: Growth inhibition of human MALME-3M cells
HOP-62 = assay: Growth inhibition of human HOP62 cells
DU-145 = assay: Growth inhibition of human DU145 cells
KM12 = assay: Growth inhibition of human KM12 cells
EKVX = assay: Growth inhibition of human EKVX cells
IGROV-1 = assay: Growth inhibition of human IGROV1 cells
ACHN = assay: Growth inhibition of human ACHN cells
UACC-257 = assay: Growth inhibition of human UACC257 cells
[2] = Growth inhibition of human Hs 578T cells
PC-3 = assay: Growth inhibition of human PC3 cells
SF-268 = assay: Growth inhibition of human SF268 cells
[3] = read-out: pLC50 (the source's name) (converted)

CC(C)=CCC/C(C)=C/Cc1cc(/C=C/c2cc(O)cc(O)c2)ccc1O [SCHWEINFURTHIN I]
GI50 (MOLT-4): 7.24 µM | LC50 (MOLT-4): > 100 µM | TGI (MOLT-4; read-out: pTGI (converted)): 30.2 µM | GI50 (COLO 205): 18.2 µM | LC50 (COLO 205): 64.6 µM | TGI (COLO 205; read-out: pTGI (converted)): 34.7 µM | GI50 (U-251): 5.5 µM | LC50 (U-251): 51.3 µM | TGI (U-251; read-out: pTGI (converted)): 20 µM | GI50 (SK-MEL-5): 4.68 µM | CC50 (SK-MEL-5; [3]): 43.7 µM | TGI (SK-MEL-5; read-out: pTGI (converted)): 17.4 µM | GI50 (SK-MEL-28): 10.7 µM | CC50 (SK-MEL-28; [3]): 50.1 µM | TGI (SK-MEL-28; read-out: pTGI (converted)): 23.4 µM | GI50 (HCT-116): 11 µM | CC50 (HCT-116; [3]): 50.1 µM | TGI (HCT-116; read-out: pTGI (converted)): 23.4 µM | GI50 (SNB-19): 12.6 µM | LC50 (SNB-19): 56.2 µM | TGI (SNB-19; read-out: pTGI (converted)): 26.9 µM | GI50 (A549): 10.5 µM | LC50 (A549): 66.1 µM | TGI (A549; read-out: pTGI (converted)): 26.3 µM | GI50 (RXF 393): 1.78 µM | CC50 (RXF 393; [3]): 7.76 µM | TGI (RXF 393; read-out: pTGI (converted)): 3.72 µM | GI50 [1]: 10 µM | GI50 (SR): 11.2 µM | LC50 (SR): > 100 µM | TGI (SR; read-out: pTGI (converted)): 43.7 µM | GI50 (UACC-62): 10.7 µM | CC50 (UACC-62; [3]): 51.3 µM | TGI (UACC-62; read-out: pTGI (converted)): 23.4 µM | GI50 (MDA-MB-231): 10.7 µM | LC50 (MDA-MB-231): 63.1 µM | TGI (MDA-MB-231; read-out: pTGI (converted)): 26.3 µM | GI50 (HCC 2998): 15.5 µM | LC50 (HCC 2998): 58.9 µM | TGI (HCC 2998; read-out: pTGI (converted)): 30.2 µM | GI50 (MDA-MB-468): 9.12 µM | CC50 (MDA-MB-468; [3]): 53.7 µM | TGI (MDA-MB-468; read-out: pTGI (converted)): 22.9 µM | GI50 (OVCAR-3): 12.3 µM | LC50 (concentration killing 50% of cells) (OVCAR-3): 50.1 µM | TGI (OVCAR-3; read-out: pTGI (converted)): 25.1 µM | GI50 (SF-295): 0.372 µM | LC50 (SF-295): 51.3 µM | TGI (SF-295; read-out: pTGI (converted)): 15.8 µM | GI50 (M14): 12.9 µM | CC50 (M14; [3]): 53.7 µM | TGI (M14; read-out: pTGI (converted)): 26.3 µM | GI50 (OVCAR-5): 17.4 µM | LC50 (OVCAR-5): 72.4 µM | TGI (OVCAR-5; read-out: pTGI (converted)): 35.5 µM | GI50 (OVCAR-8): 13.8 µM | LC50 (OVCAR-8): 70.8 µM | TGI (OVCAR-8; read-out: pTGI (converted)): 30.9 µM | GI50 (SK-MEL-2): 11.5 µM | LC50 (SK-MEL-2): 56.2 µM | TGI (SK-MEL-2; read-out: pTGI (converted)): 25.7 µM | GI50 (HCT-15): 15.8 µM | LC50 (50% lethal concentration) (HCT-15): > 100 µM | TGI (HCT-15; read-out: pTGI (converted)): 58.9 µM | GI50 (NCI-H322M): 11.5 µM | LC50 (NCI-H322M): 51.3 µM | TGI (NCI-H322M; read-out: pTGI (converted)): 24.5 µM | GI50 (CCRF-CEM): 5.37 µM | LC50 (CCRF-CEM): 95.5 µM | TGI (CCRF-CEM; read-out: pTGI (converted)): 25.7 µM | GI50 (786-0): 3.55 µM | CC50 (786-0; [3]): 37.2 µM | TGI (786-0; read-out: pTGI (converted)): 12 µM | GI50 (NCI-H23): 11.7 µM | LC50 (NCI-H23): 61.7 µM | TGI (NCI-H23; read-out: pTGI (converted)): 26.9 µM | GI50 (OVCAR-4): 10 µM | CC50 (OVCAR-4; [3]): 50.1 µM | TGI (OVCAR-4; read-out: pTGI (converted)): 22.4 µM | GI50 (UO-31): 6.76 µM | LC50 (concentration killing 50% of cells) (UO-31): 47.9 µM | TGI (UO-31; read-out: pTGI (converted)): 20.9 µM | GI50 (K562): 5.01 µM | LC50 (K562): 72.4 µM | TGI (K562; read-out: pTGI (converted)): 22.4 µM | GI50 (MCF7): 10 µM | LC50 (MCF7): 63.1 µM | TGI (MCF7; read-out: pTGI (converted)): 25.1 µM | GI50 (NCI-H226): 16.6 µM | LC50 (NCI-H226): 74.1 µM | TGI (NCI-H226; read-out: pTGI (converted)): 35.5 µM | GI50 (BT-549): 7.41 µM | LC50 (BT-549): 45.7 µM | TGI (BT-549; read-out: pTGI (converted)): 20 µM | GI50 (SK-OV-3): 15.5 µM | CC50 (SK-OV-3; [3]): 55 µM | TGI (SK-OV-3; read-out: pTGI (converted)): 29.5 µM | GI50 (Malme-3M): 11.7 µM | LC50 (Malme-3M): 63.1 µM | TGI (Malme-3M; read-out: pTGI (converted)): 26.9 µM | GI50 (HOP-62): 14.5 µM | LC50 (HOP-62): 53.7 µM | TGI (HOP-62; read-out: pTGI (converted)): 27.5 µM | GI50 (DU-145): 12.9 µM | LC50 (DU-145): 51.3 µM | TGI (DU-145; read-out: pTGI (converted)): 25.7 µM | GI50 (KM12): 7.08 µM | LC50 (KM12): 49 µM | TGI (KM12; read-out: pTGI (converted)): 20.4 µM | GI50 (EKVX): 10.5 µM | LC50 (EKVX): 50.1 µM | TGI (EKVX; read-out: pTGI (converted)): 22.9 µM | GI50 (IGROV-1): 11.7 µM | CC50 (IGROV-1; [3]): 55 µM | TGI (IGROV-1; read-out: pTGI (converted)): 25.1 µM | GI50 (ACHN): 10 µM | CC50 (ACHN; [3]): 49 µM | TGI (ACHN; read-out: pTGI (converted)): 22.4 µM | GI50 (UACC-257): 14.5 µM | LC50 (UACC-257): 60.3 µM | TGI (UACC-257; read-out: pTGI (converted)): 29.5 µM | GI50 [2]: 4.07 µM | LC50 [2]: > 100 µM | TGI ([2]; read-out: pTGI (converted)): 26.3 µM | GI50 (PC-3): 6.61 µM | LC50 (PC-3): 49 µM | TGI (PC-3; read-out: pTGI (converted)): 20.4 µM | GI50 (SF-268): 8.71 µM | LC50 (SF-268): 51.3 µM | TGI (SF-268; read-out: pTGI (converted)): 21.9 µM
